Patent US20230357292A1, “MULTI-COORDINATE GOLD-PHOSPHINE COMPOUNDS AND METHOD OF USE” (University of Kentucky Research Foundation, priority 2020, published 2023)
“Also recorded” adds a separate entry of the source.

Key:
[1] = 37° C.
Experimental: To determine the stability of gold compounds under physiological conditions in the presence of biological nucleophiles, UV absorbance measurements were conducted over a 24 h time period. Briefly, AuPhos was dissolved in media from a DMSO stock. To this solution was added 10 mM L-glutathione.
To study the stability of the gold(III) compounds in solution, the UV-vis profile of the representative compounds was evaluated in biologically relevant media at physiological temperature of 37° C. Given the common limitation of gold compounds to promiscuously bind thiol containing biomolecules, the interaction of gold(III) complex AuPhos89 was investigated with physiologically relevant concentration of L-glutathione (10 mM) in Dubelcco modified essential medium (DMEM).

MDA-MB-231 (breast) = assay: Cell viability, crystal violet assay, MDA-MB-231; assay type: cell-based, human
Description: The plates were washed with water and dried again.

4T1 tumor = assay: In vivo comparative experiment of AuPhos-89 and cisplatin, 4T1, IP; parameters: species or system BALB/c mice
Experimental: Mice were implanted with 2,000,000 4T1 cells subcutaneously on their flanks. […] The control group was injected with a PBS solution containing 1.5% DMSO and 12% Kolliphor. Injection and tumor-size/body-weight measurement was performed three days a week.
Mice organs (heart, lung, liver, kidney, spleen, and tumor) were fixed in freshly prepared paraformaldehyde (4% in PBS), the fixation time was 24 hours. And those processed for paraffin sectioning. The organs sections of 5 μm were stained with H&E staining and used for histological examination of the organs and tumor. A total of 5 sections per tissues (spanning the full depth of the organ) were examined and photographed using a Nikon Eclipse 55i microscope. […]

MDA-MB-231 cells = conditions: 1 μM; 24 h, 48 h, 72 h
Experimental: MDA-MB-231 cells were seeded at a density of 5×10^5 cells/well in a 6-well clear bottom plate with a final media volume of 2 mL and allowed to adhere overnight 37° C. […] After the desired treatment period, the medium was removed and added to a 15 mL Falcon tube. The wells were washed with 5 mL of PBS and added to the Falcon tube. The cells were trypsinized (1 mL) and added 5 mL of fresh DMEM. All media were combined, and the tube centrifuged at 2000 rpm for 5 minutes to collect the pellet. The medium was decanted, and the pellet suspended in 1 mL of PBS, which was then transferred to a 1 mL Eppendorf tube, centrifuged at 2000 rpm for 5 minutes and suspended in 70% EtOH/PBS solution. These solutions were stored at 4° C. until ready for analysis. […] The cells were washed twice with PBS (1 mL) and suspended in a 50 μL of RNase solution (100 μg/mL) and 200 μL of a 50 μg/mL PI solution. The solutions were then filtered through a 5 mL polystyrene round-bottom tube fit with a cell-strainer cap. The samples were then analyzed with FACS.

[2] = equimolar glutathione, aqueous solution, 24 h
Experimental: All spectra were recorded using an Agilent Technologies 1100 series HPLC instrument and an Agilent Phase Eclipse Plus C18 column (4.6 mm×100 mm; 3.5 μm particle size). AuPhos-89 and glutathione were prepared as 1 mM stock in DMSO and water, respectively. Equimolar amounts were mixed and the solutions were measured at 0, 1, 3, and 24 h by HPLC. The parameters used in the HPLC were as follows: flow rate, 1 mL/min; λ=280 nm; eluent A=H2O with 0.1% TFA; Eluent B═CH3CN with 0.05% HCOOH; Solvent gradient: 0 min (100:0 H2O:CH3CN), 10 min (0:100 H2O:CH3CN), 15 min (100:0 H2O:CH3CN).

[3] = 10 mg kg−1 IV, 1 h and 24 h; heart, lung, liver, spleen, kidney, tumor
Experimental: With four mice inoculated with 4T1 (1,000,000 cells), after 20 days, AuPhos-89 was inserted into mice by IV administration (0.1 mL, 10 mg/kg). Each tissue was obtained by sacrificing the mice (n=2) 1 and 24 hours later. […] The solution turned yellow and diluted as needed to measure the gold content using a Graphite Furnace Atomic Absorption Spectrometer. Before measuring all samples, the standard solution curves were measured.
After respective time points of 1 h and 24 h, mice were euthanized. Organs including heart, lung, liver, spleen, kidney, and tumor were excised and the gold concentration was analyzed by GF-AAS.

## [Cl-].[Cl][Au-]1([c]2ccccc2-c2ccccn2)[P+](c2ccccc2)(c2ccccc2)c2ccccc2[P+]1(c1ccccc1)c1ccccc1 [AuPhos-89, (2-phenylpyridine)[1,2-Bis(diphenylphosphino)benzene]gold(III) Dichloride]
[1]; 10 mM L-glutathione in media (DMEM), 24 h
  stability, UV-vis absorption with L-glutathione: no alteration to the absorption band
[1]; RPMI-1640, 24 h
  stability, UV-vis absorption in RPMI-1640: no changes to the absorption spectra
MDA-MB-231 (breast); MDA-MB-231 (breast), 4,000 cells/well, treated 72 h, mean ± SD (n = 3)
  IC50: 450 ± 140 nM
MDA-MB-231 (breast); cell line not stated at the place (structure-activity relationship studies)
  IC50: 220 nM
4T1 tumor; 4T1 tumor-bearing mice, treated versus control
  liver metastasis (H&E sections): can inhibit liver metastasis; also recorded: not visible; also recorded: no palpable metastatic lesions
4T1 tumor; AuPhos-89 10 mg kg−1 IP, cisplatin 3 mg kg−1 IP
  tumor inhibition compared with the control group: significant tumor inhibition
4T1 tumor; intraperitoneal administration
  body weight: kept constant
4T1 tumor; mouse, in vivo, ip
  survival: increased rates of survival
4T1 tumor; six treatments, thrice a week, IP, AuPhos-89 10 mg kg−1, cisplatin 3 mg/kg, versus vehicle control
  tumor volume: reduced tumor volume
MDA-MB-231 cells
  cell cycle distribution: no significant changes to the cell cycle
[2]
  stability with L-GSH, HPLC chromatogram: little change
[3]
  tissue biodistribution, Au levels in organs: confirmed the uptake
